Assay results: patent US20240383852A1, “ANTI-VIRAL COMPOUNDS” (INFEX Therapeutics Limited, priority 2021, published 2024)
Where a name gives a salt, the structure may show the parent alone. Read-outs that look alike come from different tables or passages of the source.

Tests used:
[1] = test system: human Hep G2 cells (ATCC HB-8065); test: Cytotoxicity in Hep G2 cells (CellTiter-Glo); format: cell-based; conditions: Hep G2 cells, 100 μM test article, 24-hour exposure
SARS-CoV-2 PLpro = biological target: T1, SARS-CoV-2 PLpro (Severe acute respiratory syndrome coronavirus 2, UniProt P0DTD1); test: biochemical
T1 construct: containing 60 nM papain-like protease

[2] = 60 nM papain-like protease, 50 μM Z-RLRGG-AMC, pH 7.5, 37° C., read-out: SARS-CoV-2 PLpro IC50

SMILES	% Cell Viability [1]	IC50 (SARS-CoV-2 PLpro; [2])	IC50 (SARS-CoV-2 PLpro)
Cc1ccc(N2CCN(C)CC2)cc1C(=O)N[C@H](C)c1cccc(-c2cccc(CO)c2)c1 [Example 42, N-[(1R)-1-[3-[3-(Hydroxymethyl)phenyl]phenyl]ethyl]-2-methyl-5-(4-methylpiperazin-1-yl)benzamide]	64.1%	< 2 µM	
Cc1ccc(N2CCN(C)CC2)cc1C(=O)N[C@H](C)c1cccc(-c2cccc(C(=O)N(C)CCN(C)C)c2)c1 [Example 86, N-[(1R)-1-[3-[3-[2-(Dimethylamino)ethyl-methyl-carbamoyl]phenyl]phenyl]ethyl]-2-methyl-5-(4-methylpiperazin-1-yl)benzamide]	72.1%	< 2 µM	
Cc1ccc(N2CCN(C)CC2)cc1C(=O)N[C@H](C)c1cccc(-c2cccc(C(O)CO)c2)c1 (stereo partly drawn) [Example 71, N-[(1R)-1-[3-[3-(1,2-Dihydroxyethyl)phenyl]phenyl]ethyl]-2-methyl-5-(4-methylpiperazin-1-yl)benzamide]	68.4%	< 2 µM	
COc1cc(-c2ccnn2C)cc([C@@H](C)NC(=O)c2cc(N3C[C@H]4C[C@@H]3CN4C)ccc2C)c1 [Example 248, N-[(1R)-1-[3-Methoxy-5-(2-methylpyrazol-3-yl)phenyl]ethyl]-2-methyl-5-[(1R,4R)-5-methyl-2,5-diazabicyclo[2.2.1]heptan-2-yl]benzamide]	55.3%	< 2 µM	
COc1ccc([C@@H](C)NC(=O)c2cc(N3CCN(C)CC3)ccc2C)cc1-c1ccccc1 [Example 203, N-[(1R)-1-(4-Methoxy-3-phenyl-phenyl)ethyl]-2-methyl-5-(4-methylpiperazin-1-yl)benzamide]	0.9%	< 2 µM	
CNC(=O)c1cccc([C@@H](C)NC(=O)c2cc(N3CCN(C)CC3)ccc2C)c1 [Example 312, 2-Methyl-N-[(1R)-1-[3-(methylcarbamoyl)phenyl]ethyl]-5-(4-methylpiperazin-1-yl)benzamide]	78.3%	< 10 µM	
COc1cc(-c2cnn(C)c2)cc([C@@H](C)NC(=O)c2cc(C3CCNCC3)ccc2C)c1 [Example 303, N-[(1R)-1-[3-Methoxy-5-(1-methylpyrazol-4-yl)phenyl]ethyl]-2-methyl-5-(4-piperidyl)benzamide]	73.2%	< 2 µM	
Cc1ccc(N2CCN(C)CC2)cc1C(=O)N[C@H](C)c1cccc(-c2cnc(N)nc2)c1 [Example 63, N-[(1R)-1-[3-(2-Aminopyrimidin-5-yl)phenyl]ethyl]-2-methyl-5-(4-methylpiperazin-1-yl)benzamide]	75.6%	< 2 µM	
COc1ccc([C@@H](C)NC(=O)c2cc(N3CC4CN(C)CC4C3)ccc2C)cc1-c1cnn(C)c1 (stereo partly drawn) [Example 240, N-[(1R)-1-[4-Methoxy-3-(1-methylpyrazol-4-yl)phenyl]ethyl]-2-methyl-5-(2-methyl-1,3,3a,4,6,6a-hexahydropyrrolo[3,4-c]pyrrol-5-yl)benzamide]	64.3%	< 2 µM	
COc1ccc([C@@H](C)NC(=O)c2cc(N3C[C@H]4C[C@@H]3CN4C)ccc2C)cc1-c1csc(C(=O)N(C)C)c1 [Example 286, 4-[2-Methoxy-5-[(1R)-1-[[2-methyl-5-[(1R,4R)-5-methyl-2,5-diazabicyclo[2.2.1]heptan-2-yl]benzoyl]amino]ethyl]phenyl]-N,N-dimethyl-thiophene-2-carboxamide]	50.3%	< 2 µM	
Cc1ccc(N2CCN(C)CC2)cc1C(=O)N[C@H](C)c1cccc(Br)c1 [Example 22, N-[(1R)-1-(3-Bromophenyl)ethyl]-2-methyl-5-(4-methylpiperazin-1-yl)benzamide]	65.5%	< 5 µM	
Cc1ccc(N2CCN(C)CC2)cc1C(=O)N[C@H](C)c1cccc(N2CCN(C)CC2)c1 [Example 104]	82.7%		
Cc1ccc(N2CCN(C)CC2)cc1C(=O)N[C@H](C)c1cnn(C)c1 [Example 127, 2-Methyl-5-(4-methylpiperazin-1-yl)-N-[(1R)-1-(1-methylpyrazol-4-yl)ethyl]benzamide]		< 100 µM	
COc1ccc([C@@H](C)NC(=O)c2cc(N3[C@@H]4CC[C@H]3CN(C)C4)ccc2C)cc1OC [Example 10, N-[(1R)-1-(3,4-Dimethoxyphenyl)ethyl]-2-methyl-5-[(1S,5R)-3-methyl-3,8-diazabicyclo[3.2.1]octan-8-yl]benzamide]			< 100 µM
C[C@@H](NC(=O)c1cc(-c2ccc(C3CCNCC3)cc2)cn1C)c1cccc2ccccc12 [Example 151, 1-Methyl-N-[(1R)-1-(1-naphthyl)ethyl]-4-[4-(4-piperidyl)phenyl]pyrrole-2-carboxamide]		> 100 µM	
C[C@@H](NC(=O)c1cc(C2=CCNC2)cn1C)c1cccc2ccccc12 [Example 149, 4-(2,5-Dihydro-1H-pyrrol-3-yl)-1-methyl-N-[(1R)-1-(1-naphthyl)ethyl]pyrrole-2-carboxamide Hydrochloride Salt]		< 100 µM	
C[C@@H](NC(=O)c1cc(-c2ccc(CN3CCN(C)CC3)cc2)ccc1Cl)c1cccc2ccccc12 [Example 145]		< 100 µM	
Cc1ccc(N2CCN(C)CC2)cc1C(=O)N[C@H](C)c1cccc2c1OCCO2 [Example 183, N-[(1R)-1-(2,3-Dihydro-1,4-benzodioxin-5-yl)ethyl]-2-methyl-5-(4-methylpiperazin-1-yl)benzamide]		< 20 µM	

SMILES	% Cell Viability [1]	IC50 (SARS-CoV-2 PLpro; [2])	IC50 (SARS-CoV-2 PLpro)
C[C@@H](NC(=O)c1cccc(C2CCN(CCC(=O)O)CC2)c1)c1cccc2ccccc12 [Example 164, 3-[4-[3-[[(1R)-1-(1-Naphthyl)ethyl]carbamoyl]phenyl]-1-piperidyl]propanoic acid]		< 100 µM	
Cc1ccc(N2CCN(C)CC2)cc1C(=O)N[C@H](C)c1cccc(-c2ccncc2)c1 [Example 51, 2-Methyl-5-(4-methylpiperazin-1-yl)-N-[(1R)-1-[3-(4-pyridyl)phenyl]ethyl]benzamide]		< 2 µM	
C[C@@H](NC(=O)c1ccnc(N2CC[C@H](N)C2)n1)c1cccc2ccccc12 [Example 318, 2-[(3S)-3-Aminopyrrolidin-1-yl]-N-[(1R)-1-(1-naphthyl)ethyl]pyrimidine-4-carboxamide]		< 100 µM	
C[C@@H](NC(=O)c1cccc(C(=O)NCCN(C)C)c1)c1cccc2ccccc12 [Example 174, N1-[2-(Dimethylamino)ethyl]-N3-[(1R)-1-(1-naphthyl)ethyl]benzene-1,3-dicarboxamide]		< 100 µM	
C[C@@H](NC(=O)c1cccc(-c2ccnc(N3CCOCC3)n2)c1)c1cccc2ccccc12 [Example 138, 3-(2-Morpholinopyrimidin-4-yl)-N-[(1R)-1-(1-naphthyl)ethyl]benzamide]		> 100 µM	
Cc1ccc(N2CCCN(CCS(C)(=O)=O)CC2)cc1C(=O)N[C@H](C)c1cccc2ccccc12 [Example 177, 2-Methyl-5-[4-(2-methylsulfonylethyl)-1,4-diazepan-1-yl]-N-[(1R)-1-(1-naphthyl)ethyl]benzamide]		< 20 µM	
Cc1ccc(N2CCN(C)CC2)cc1C(=O)N[C@H](C)c1cccc(CCC(=O)N(C)C)c1 [Example 84, N-[(1R)-1-[3-[3-(Dimethylamino)-3-oxo-propyl]phenyl]ethyl]-2-methyl-5-(4-methylpiperazin-1-yl)benzamide]		< 20 µM	
C[C@@H](NC(=O)c1cccc(C(=O)N2CCN(C)CC2)c1)c1cccc2ccccc12 [Example 173, 3-(4-Methylpiperazine-1-carbonyl)-N-[(1R)-1-(1-naphthyl)ethyl]benzamide]		> 100 µM	
Cc1ccc(N2CCN(C)CC2)cc1C(=O)N[C@H](C)c1cc(OCCO)cc(-c2cnn(C)c2)c1 [Example 281, N-[(1R)-1-[3-(2-Hydroxyethoxy)-5-(1-methylpyrazol-4-yl)phenyl]ethyl]-2-methyl-5-(4-methylpiperazin-1-yl)benzamide]		< 2 µM	
C[C@@H](NC(=O)c1cccc(N2CCCCC2)c1)c1cccc2ccccc12 [Example 1, N-[(1R)-1-(1-naphthyl)ethyl]-3-(1-piperidyl)benzamide]		> 100 µM	
Cc1ccc(N2CCN(C)CC2)cc1C(=O)N(C)[C@H](C)c1cccc2ccccc12 [Example 35, N,2-Dimethyl-5-(4-methylpiperazin-1-yl)-N-[(1R)-1-(1-naphthyl)ethyl]benzamide]		< 100 µM	
C[C@@H](NC(=O)c1cccc(C2CCN(CCS(C)(=O)=O)CC2)c1)c1cccc2ccccc12 [Example 176, 3-[1-(2-Methylsulfonylethyl)-4-piperidyl]-N-[(1R)-1-(1-naphthyl)ethyl]benzamide]		< 100 µM	
Cc1ccc(N2CCN(C)CC2)cc1C(=O)N[C@H](C)c1cc(OCC2CC2)cc(-c2cnn(C)c2)c1 [Example 277, N-[(1R)-1-[3-(Cyclopropylmethoxy)-5-(1-methylpyrazol-4-yl)phenyl]ethyl]-2-methyl-5-(4-methylpiperazin-1-yl)benzamide]		< 2 µM	
Cc1ccc(N2CCN(S(C)(=O)=O)CC2)cc1C(=O)N[C@H](C)c1cccc2ccccc12 [Example 110, 2-Methyl-5-(4-methylsulfonylpiperazin-1-yl)-N-[(1R)-1-(1-naphthyl)ethyl]benzamide]		> 100 µM	
Cc1ccc(N2CCN(C)CC2)cc1C(=O)N[C@H](C)c1cccs1 [Example 191, 2-Methyl-5-(4-methylpiperazin-1-yl)-N-[(1R)-1-(2-thienyl)ethyl]benzamide hydrochloride salt]		< 100 µM	
C[C@@H](NC(=O)c1ccnc(N2CC[C@@H](N)C2)n1)c1cccc2ccccc12 [Example 319, 2-[(3R)-3-Aminopyrrolidin-1-yl]-N-[(1R)-1-(1-naphthyl)ethyl]pyrimidine-4-carboxamide Hydrochloride Salt]		> 100 µM	
CNCCN(C)C(=O)c1cccc([C@@H](C)NC(=O)c2cc(N3CCN(C)CC3)ccc2C)c1 [Example 314, 2-Methyl-N-[(1R)-1-[3-[methyl-[2-(methylamino)ethyl]carbamoyl]phenyl]ethyl]-5-(4-methylpiperazin-1-yl)benzamide Dihydrochloride Salt]		< 20 µM	
